Holding throughout (type): in vivo
Data set [1] concerns Smad2 phosphorylation. In words: Phospho-Smad2 analysis of muscle tissue in the D2-mdx mouse model (western blot, densitometry). From the text:
(§1) The experiment described herein was designed to monitor the effects of Compound 9 on two biomarkers related to fibrosis in D2-mdx mice. The first biomarker is Smad2 phosphorylation, and the second is the levels of serum albumin in the different muscle tissues. Fibrosis causes disruption of the fine transparent tubular sheath which envelops the fibers of skeletal muscles, this can result in various molecules from the blood and interstitial fluid leaking into myofibres. A classic example is serum albumin, which can be identified in tissue sections and considered to be hallmark of myofibre permeability.
(§2) Experimental Design: Compound 9 was suspended in 0.5% Hydroxypropyl Methylcellulose (HPMC)/0.1% Tween® 80 to a final concentration of 10 mg/mL. The dosing solutions were prepared prior to the start of the test and were stored in the dark and maintained in frozen aliquots. Doses were thawed prior to administration. Male D2-mdx (JAX Stock No: 013141) mice were sourced from The Jackson Laboratory and housed in solid bottom cages with standard chow and water ad libitum. Dosing was initiated when animals were ˜3 weeks old. Animals were dosed daily by intraperitoneal (IP) injection at 100 mg/kg or vehicle for 3 days. […] Mice were sacrificed by CO2 euthanasia approximately 6 hours after their day 3 dosing. Heart, diaphragm, quadriceps, tibialis anterior (TA) samples were collected at termination on day 3 and snap frozen. These samples were shipped on dry ice for analysis, and were stored at −80° C.
(§3) Tissue protein extraction: Frozen tissues were placed on ice in prechilled tubes with 30 μL/mg with of ice-cold RIPA buffer+Halt™ Protease & Phosphatase Inhibitor Cocktail. Tissue was homogenized with a manual tissue homogenizer then centrifuged at 14,000 RPM at 4° C. for 15 min. Supernatant was removed and protein concentration determined by BCA assay.
(§4) Western blot protocol: Equal amounts of protein (15-50 μg) were separated by SDS-PAGE and transferred to nitrocellulose membranes (Invitrogen by Thermo Fisher Scientific). The membrane was stained with Ponceau S Stain (Boston BioProducts) to verify uniform protein loading. Membranes were blocked with 10% milk and albumin levels were assessed by incubating overnight at 4° C. with albumin antibody (Cell Signaling Technology #4929). Then the membranes were incubated with HRP-conjugated secondary antibody (Jackson Immunoresearch, West Grove, PA). Bands were incubated in Amersham ECL Prime Western Blotting Detection Reagent (GE Healthcare) and visualized using the ChemiDoc MP imaging system (Bio-Rad).
(§5) Western blot images for samples collected from heart (FIG. 2), diaphragm (FIG. 3), quadriceps (FIG. 4), and tibialis anterior (TA, FIG. 5) tissues following termination on day 3 were analyzed, providing the results summarized herein below (derived by densitometry).
In general terms: Immunoblotting shows a protein as a band on a membrane.

The nature of data set [2]: Observation for mortality and signs of pain or distress, D2-mdx mice. Conditions: male D2-mdx mice, 100 mg/kg IP daily for 3 days. The protocol: as §2
Data set [3] relates to serum albumin in muscle tissues. In words: Albumin analysis of muscle tissue in the D2-mdx mouse model (western blot, densitometry).
Source text: as §1, §2, §3, §4, §5

The mark [4] stands for this setting: D2-mdx mice, 100 mg/kg IP, 3 days.
[5] abbreviates: Ratio of Vehicle and Treated, 100 mg/kg IP, 3 days.
Setting [6] is: Treated, 100 mg/kg IP daily for 3 days, D2-mdx mice, densitometry.

On to `COCCNc1nc(-c2nccn2C)nc2sc(-c3cccc(OC)c3Cl)c(-c3ccccc3)c12` [Compound 9, 6-(2-Chloro-3-methoxyphenyl)-N-(2-methoxyethyl)-2-(1-methyl-1H-imidazol-2-yl)-5-phenylthieno[2,3-d]pyrimidin-4-amine], for which, in data set [1] (setting [4]), the “Smad2 phosphorylation in the diaphragm compared to control vehicle mice” value was “inhibition of Smad2 phosphorylation” and the “Smad2 phosphorylation in the heart” value is recorded as “No changes were detected”. For the same compound, in data set [1] (setting [5]), the “Phospho-Smad2, Diaphragm, Average, Ratio” value was found to be 1.53; the “Phospho-Smad2, Diaphragm, Median, Ratio” value came out at 1.54; the “Phospho-Smad2, Quadriceps, Average, Ratio” value turned out to be 1.10; the “Phospho-Smad2, Quadriceps, Median, Ratio” value stood at 0.64. In data set [1] (setting [6]), the “Phospho-Smad2, Diaphragm, Average” value was determined as 0.18 ± 0.06; the “Phospho-Smad2, Diaphragm, Median” value is recorded as 0.19; the “Phospho-Smad2, Quadriceps, Average” value turned out to be 0.22 ± 0.11; the “Phospho-Smad2, Quadriceps, Median” value amounted to 0.28. Moreover, the “findings of overt toxicity” value in data set [2] was “No findings of overt toxicity were observed”. For the same compound, in data set [3] (setting [4]), the “serum albumin levels in the heart” value was “No changes were detected”; the “serum albumin levels in the tibialis anterior and quadricep muscles” value is “clear decrease”. In addition, in data set [3] (setting [5]), the “Albumin, Quadriceps, Average, Ratio” value was determined as 1.25; the “Albumin, Quadriceps, Median, Ratio” value was determined as 1.21; the “Albumin, Tibialis anterior, Average, Ratio” value was found to be 1.18; the “Albumin, Tibialis anterior, Median, Ratio” value is listed as 1.26. For the same compound, in data set [3] (setting [6]), the “Albumin, Quadriceps, Average” value is on record as 32650 ± 4998; the “Albumin, Quadriceps, Median” value is given as 34329; the “Albumin, Tibialis anterior, Average” value came out at 34522 ± 4321; the “Albumin, Tibialis anterior, Median” value was 33494.

These data come from US20240124483A1, “Methods for the Treatment of Fibrotic Disease” (SHY Therapeutics, LLC, priority 2021, published 2024).
